Laboratory results from US20080213172A1, “RADIOIMAGING MOIETIES COUPLED TO PEPTIDEASE-BINDING MOIETIES FOR IMAGING TISSUES AND ORGANS THAT EXPRESS PEPTIDASES” (Molecular Insight Pharmaceuticals, Inc., priority 2006, published 2008).

Each compound was assayed against T1, purified rabbit lung ACE (Oryctolagus cuniculus, UniProt P12822) (assay: In vitro ACE activity colorimetric assay (Fujirebio ACE color kit)). Conditions: Re-complexes; purified rabbit lung ACE.
T1 construct: The rabbit lung ACE (Sigma A6778) was reconstituted to a concentration of 1 unit/3 ml water; purchased Sigma A6778; host or cells: rabbit lung tissue
T1 sequence (P12822 34-1310): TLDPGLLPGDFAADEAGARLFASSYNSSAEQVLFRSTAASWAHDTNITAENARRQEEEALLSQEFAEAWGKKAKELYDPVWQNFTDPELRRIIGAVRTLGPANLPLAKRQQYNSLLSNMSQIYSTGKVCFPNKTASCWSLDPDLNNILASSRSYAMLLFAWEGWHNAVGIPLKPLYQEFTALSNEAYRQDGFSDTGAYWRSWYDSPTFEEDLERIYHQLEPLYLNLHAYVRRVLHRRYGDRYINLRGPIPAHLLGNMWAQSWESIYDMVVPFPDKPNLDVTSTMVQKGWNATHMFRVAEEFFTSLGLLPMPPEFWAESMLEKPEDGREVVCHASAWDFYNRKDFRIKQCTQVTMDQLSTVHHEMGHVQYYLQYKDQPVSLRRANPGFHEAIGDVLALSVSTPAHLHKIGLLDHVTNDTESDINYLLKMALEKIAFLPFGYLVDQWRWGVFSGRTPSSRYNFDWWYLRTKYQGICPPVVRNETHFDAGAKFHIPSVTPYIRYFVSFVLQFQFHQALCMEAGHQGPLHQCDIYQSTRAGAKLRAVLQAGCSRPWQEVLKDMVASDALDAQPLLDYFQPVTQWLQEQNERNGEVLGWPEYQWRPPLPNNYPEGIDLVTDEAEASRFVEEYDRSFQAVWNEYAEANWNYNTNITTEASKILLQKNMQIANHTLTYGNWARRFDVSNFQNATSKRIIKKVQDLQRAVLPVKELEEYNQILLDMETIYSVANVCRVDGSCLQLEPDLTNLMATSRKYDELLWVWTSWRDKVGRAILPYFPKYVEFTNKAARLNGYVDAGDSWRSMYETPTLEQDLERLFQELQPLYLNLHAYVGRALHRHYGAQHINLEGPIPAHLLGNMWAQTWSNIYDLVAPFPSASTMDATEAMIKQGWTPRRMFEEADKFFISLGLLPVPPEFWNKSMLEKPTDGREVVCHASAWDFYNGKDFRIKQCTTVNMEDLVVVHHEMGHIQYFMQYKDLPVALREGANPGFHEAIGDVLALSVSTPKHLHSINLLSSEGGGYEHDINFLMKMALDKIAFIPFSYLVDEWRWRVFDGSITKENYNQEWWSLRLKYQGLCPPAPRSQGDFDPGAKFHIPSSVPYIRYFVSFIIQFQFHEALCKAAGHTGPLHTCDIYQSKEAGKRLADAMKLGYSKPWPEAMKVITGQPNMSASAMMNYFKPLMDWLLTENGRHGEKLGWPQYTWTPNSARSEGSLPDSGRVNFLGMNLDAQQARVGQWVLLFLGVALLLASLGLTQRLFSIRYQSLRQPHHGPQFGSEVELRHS
Type: biochemical
Description: ACE inhibition was evaluated in vitro against rabbit lung ACE using a colorimetric assay.
A range of concentrations of each compound was examined for the ability to inhibit ACE cleavage of p-hydroxybenzoyl-glycine L-histidyl-L-leucine using a commercially available in vitro biochemical assay according to manufacturer's specifications (Fujirebio). The source of ACE enzyme chosen for the analysis was purified rabbit lung ACE (Sigrna) at 3.3 mU/sample. Lisinopril was included in each experiment as a positive control.
Angiotensin converting enzyme (ACE) activity was determined using the ACE color kit (Fujirebio) according to the manufacturers instructions. ACE acts upon p-hydroxybenzoyl-glycyl-L-histidyl-L-leucine to produce p-hydroxybenzoyl-glycine, which is converted to p-hydroxybenzoic acid by hippuricase. Quinoneimine dye is produced by oxidation and condensation of the p-hydroxybenzoic acid and 4-aminoantipyrine using sodium metaperiodate. The concentration of quinoneimine dye is quantitatively measured at its absorbance maximum of 505 nm. This assay was designed to compare the tissue and plasma specificity of rhenium-labeled ACE inhibitors in an ACE colorimetric assay.
Preparation of reagents: The ACE color kit was purchased from Fujirebio and the assay was conducted according to the manufacturer's instructions: reconstitute substrate with 5.6 ml of buffer solution, reconstitute blank with 5.6 ml of buffer solution for blank, reconstitute developer with 15.5 ml of stopper solution. The rabbit lung ACE (Sigma A6778) was reconstituted to a concentration of 1 unit/3 ml water.
Substrate or blank solution (125 μL) was then added and incubated at 37° C. for 20 min. The developer solution was added and incubated 37° C. for 3 min. The activity of the test compounds was determined by measuring the absorbance at 505 nm on a spectrophotometer. The optimal amount of serum ACE (25 μL) and tissue ACE (3.3 mUnits) was used to determine the specificity of the rhenium-labled ACE inhibitors. Test compounds, including lisinopril and captopril, were prepared (50 μM stock) and serially diluted 10-fold for final concentrations ranging from 1 μM to 0.1 nM (10 μL/assay tube). The assay was conducted as described above.
In vitro ACE activity assay. The ability of test compounds to inhibit ACE activity was determined using the ACEcolor kit from Fujirebio, Inc. according to the manufacturer's instructions. Purified rabbit lung ACE. (3.3 mUnits, Sigrna Chemicals) was incubated for 20 min with the test compound at concentrations of 1 μM to 0.1 nM in a solution of substrate at 37° C. Developer solution was added and the samples were incubated for an additional 5 minutes at 37° C. before reading at 505 nm in a spectrophotometer.

SMILES	IC50
NCCCC[C@H](N[C@@H](CCc1ccccc1)C(=O)O)C(=O)N1CCC[C@H]1C(=O)O [Lisinopril, reference compound]	4 nM

Same assay, conditions: free D(Cx)L ligands; rabbit lung ACE 3.3 mU/sample

SMILES	IC50
O=C(CCCCCN(Cc1ccccn1)Cc1ccccn1)NCCCCC(NC(CCc1ccccc1)C(=O)O)C(=O)N1CCCC1C(=O)O (stereo not drawn) [D(C6)L]	42.5 nM
O=C(CCCCCCCN(Cc1ccccn1)Cc1ccccn1)NCCCCC(NC(CCc1ccccc1)C(=O)O)C(=O)N1CCCC1C(=O)O (stereo not drawn) [D(C8)L]	19.5 nM
O=C(CCCN(Cc1ccccn1)Cc1ccccn1)NCCCCC(NC(CCc1ccccc1)C(=O)O)C(=O)N1CCCC1C(=O)O (stereo not drawn) [D(C4)L]	83.3 nM
O=C(CCCCN(Cc1ccccn1)Cc1ccccn1)NCCCCC(NC(CCc1ccccc1)C(=O)O)C(=O)N1CCCC1C(=O)O (stereo not drawn) [D(C5)L]	42.8 nM
NCCCC[C@H](N[C@@H](CCc1ccccc1)C(=O)O)C(=O)N1CCC[C@H]1C(=O)O [Lisinopril, reference compound]	2.5 nM
